Reference: PMC3641071, “Pharmacokinetics and Efficacy of PEGylated Liposomal Doxorubicin in an Intracranial Model of Breast Cancer” (PLoS ONE, 2013)
Read-outs that look alike come from different tables or passages of the source.

Columns and labels:
[1] = system: intracranial MDA-MB-231-BR luciferase-expressing tumors; assay: Bioluminescence imaging of intracranial tumors; format: in vivo, Foxn1nu/nu mice
Protocol: All animals were anesthetized via inhalation with 2% vaporized isoflurane during the imaging process. Approximately 15 min prior to imaging, all inoculated mice received an intraperitoneal (IP) injection of D-Luciferin dissolved in PBS (150 mg/kg; Caliper Life Sciences, Hopkinton, MA). To confirm the presence or absence of intracranial tumor, mice were imaged using the IVIS Lumina camera (Caliper Life Sciences, Hopkinton, MA). Images were analyzed using Living Image 4.0 Software (Caliper Life Sciences, Hopkinton, MA). All values were recorded as photons/second and were corrected for the presence of background signal.
Treatment was ongoing until clinical symptoms necessitated sacrifice. […] Mice were weighed a minimum of three times/weekly and were monitored by optical imaging weekly until clinical symptoms (i.e. decreased response to stimuli, neurologic dysfunction, weight loss of 20% and/or a Body Composition Score of 2 or less) necessitated sacrifice.
The Kaplan-Meier method and Log-rank tests were used to evaluate and compare overall survival among treatment groups. […] For bioluminescence imaging, fold changes were calculated relative to the start date of treatment. If present, negative imaging values (due to correction for background) were recorded and set to zero. […]

[2] = system: MDA-MB-231-BR cells; assay: Cell viability (MTS) assay, single agent and combination treatments; format: cell-based; conditions: Homo sapiens, read-out: IC50 (50% reduction in MTS dye conversion), 72 hours, single agent
Protocol: A mitochondrial dye conversion assay (Cell Titer 96® Aqueous One Solution Cell Proliferation Assay; Promega Corp., Madison, WI) was used to measure cell viability after treatment. This assay was conducted according to manufacturer's instructions, with modifications. […] Cell counting was performed with an automated cell counter. Cells were allowed to adhere overnight, and media was replaced with fresh media containing a range of drug doses. After the specified treatment period, 20 µl of tetrazolium compound inner salt (MTS) containing an electron coupling reagent, phenazine ethosulfate (PES) was added in each well and incubated at 37°C for 1 hour (h). The MTS absorbance was measured spectrophotometrically at 490 nm (minus background absorbance). All cytotoxic experiments were done in triplicate.
Drug combination interactions were analyzed using methods developed by Chou and Talalay.
CalcuSyn (BioSoft, Cambridge, UK) was used to estimate the IC50 for each drug and to determine the combination index, which is a measurement of the type of drug interactions. A combination index (CI) of 1 indicates an additive response, <1 indicates a synergistic response, and >1 indicates an antagonistic response.

[3] = system: intracranial MDA-MB-231-BR human triple-negative breast cancer xenografts; assay: Efficacy study: median survival in intracranial model of breast cancer; format: in vivo, Foxn1nu/nu mice; conditions: single agent, control 26 (25-28)
Protocol: Therapeutic studies and assessment for response were performed with the assistance of the Mouse Phase I Unit (MP1U). Female, Foxn1^nu/nu mice, approximately 20 grams and aged 8 weeks of age were bred in-house from animals purchased from Charles River Laboratories International, Inc. (Wilmington, MA; Stock #490) and were used for all studies. […] Cells were stereotactically-injected into the right caudate nucleus of the basal ganglia using a 27 gauge needle (from Bregma a:1.0mm, l:-2.0 mm, d:-4.0 mm) which remained in place for a period of 2 minutes (min) to minimize reflux through the needle track.
The Kaplan-Meier method and Log-rank tests were used to evaluate and compare overall survival among treatment groups. Unadjusted p-values are reported. For bioluminescence imaging, fold changes were calculated relative to the start date of treatment. […] For every time point where at least two animals were alive in the treatment group, the median level and interquartile range (25th–75th percentile) for bioluminescence imaging were calculated.

[4] = system: formation of PAR in MDA-MB-231-BR cellular extracts; assay: PAR levels in cellular extracts (HT PARP in vivo Pharmacodynamic Assay II); format: cell-based, human; conditions: data not shown
Protocol: Doxorubicin (NonL-doxo) and PEGylated liposomal doxorubicin (PLD, Doxil®) were both obtained from the University of North Carolina (UNC) Hospitals Pharmacy (Chapel Hill, NC). The poly-ADP-ribose polymerase (PARP) inhibitor, ABT-888, was synthesized by the Chemistry Center for Integrative Chemical Biology and Drug Discovery at UNC (Dr. S. Frye). ABT-888 was dissolved in PBS (phosphate-buffered saline, Life Technologies, Grand Island, NY). The molecular weight of pure ABT-888 is 244.29 g/mol, while the molecular weight of the salt form (which includes 2 HCl molecules) is 317.21 g/mol. All calculations were performed using the molecular weight of the salt form of ABT-888. The ability of ABT-888 to inhibit the formation of PAR was confirmed by measuring PAR levels in MDA-MB-231-BR cellular extracts using HT PARP in vivo Pharmacodynamic Assay II (Trevigen, Gaitherburg, MD, data not shown).

[5] = Pharmacokinetic study: sum total doxorubicin in plasma, brain tumor and brain by HPLC-FL; format: in vivo; conditions: 6 mg/kg IV x1; for AUC(0-inf): read-out: AUC0-∞ of sum total doxorubicin
Protocol: Group 1 (n = 23) received NonL-doxo administered over 10–15 seconds at 6 mg/kg IV ×1 via tail vein.
Approximately 1 mL of blood was collected via terminal cardiac puncture following deep anesthesia (ketamine 100 mg/kg IP ×1 and Domitor® 1 mg/kg IP ×1) using sodium heparin as an anticoagulant and centrifuged at 1,500 g for 5 minutes to collect plasma. Brain tumor, peri-tumoral brain and normal (contralateral, non-tumor) brain were collected from each mouse. Plasma, tumor, and tissues were placed in cryopreservation vials and preserved by snap freezing using liquid nitrogen. All samples were stored at −80°C until analysis.
Total tissue and tumor weight was recorded at time of collection. Whole tissue and tumors were snap frozen in liquid nitrogen and stored at −80°C until homogenized. To form tissue and tumor homogenates, the intact tissues and tumors were thawed and sectioned. The sections were weighed and diluted in a 1:3 ratio with phosphate buffered saline (PBS) solution. Finally, these mixtures were homogenized by placing zirconium oxide beads (15 small and 2 large; Omni International Inc, Kennesaw, GA) into 2 mL tubes at […] using a Precellys 24 homogenizer (Omni International Inc, Kennesaw, GA) twice for 15 sec each with a 5 sec wait between each run.
Samples were further processed for the analytical studies using protein precipitation with acetonitrile. An 800 µL of extraction solution containing internal standard (acetonitrile with 100 ng/mL daunorubicin) was added to 200 µL of plasma, tumor or tissue homogenate into a 2 mL microcentrifuge tube. The samples were vortexed for 10 min and centrifuged at 10,000×g for 10 min at 4°C. […] The samples were then vortexed, transferred into auto-sampler vials and analyzed by high-performance liquid chromatography (HPLC) using fluorescence (FL) detection (excitation wavelength: 490 nm/ emission wavelength: 590 nm). The HPLC-FL method to measure sum total (encapsulated and released) doxorubicin in plasma, tumor, and tissues was modified from previous studies, [23], [24].
The area under the concentration versus time curve from 0 to ∞ (AUC0–∞) was calculated using the linear up/log down rule. The plasma volume of distribution (Vd), clearance (CL), and half-life (t1/2) were calculated using standard equations. The maximum concentration (Cmax) and time of Cmax (tmax) were determined by visual inspection of the concentration versus time data.

[6] = female, athymic nude (nu/nu), mouse, brain tumor
[7] = female, athymic nude (nu/nu), mouse, normal brain
[8] = female, athymic nude (nu/nu), mouse, peri-tumoral brain
[9] = female, athymic nude (nu/nu), mouse, plasma

SMILES: C[C@]1(c2nc3c(C(N)=O)cccc3[nH]2)CCCN1 [ABT-888]
- highest median fold change from baseline in bioluminescence ([1]; ABT-888 25 mg/kg/day OG, 4 weeks post-treatment, control 87.8 at 3 weeks): 41.8
- IC50 [2]: 277 µM
- Median Survival and 95% CI ([3]; ABT-888 25 mg/kg/day oral gavage, 25 mg/kg/day): 27 (24 – 31) days
- ability to inhibit the formation of PAR [4]: confirmed

SMILES: COc1cccc2c1C(=O)c1c(O)c3c(c(O)c1C2=O)C[C@@](O)(C(=O)CO)C[C@@H]3O[C@H]1C[C@H](N)[C@H](O)[C@H](C)O1 [NonL-doxo, Doxorubicin]
- highest median fold-change in bioluminescence ([1]; 6 mg/kg IV weekly single agent, 3 weeks post-treatment): 4.6
- IC50 [2]: 0.242 µM
- time after which sum total doxorubicin was undetectable ([5]; brain tumor): 24 h
- Cmax [5, 6]: 570 ng/mL
- Tmax [5, 6]: 6 h
- AUC(0-inf) [5, 6]: 12100 ng·h/mL
- AUC(0-inf) ([5]; female, athymic nude (nu/nu), mouse, normal (contralateral, non-tumor) brain): 326 ng·h/mL
- Cmax [5, 7]: 92 ng/mL
- Tmax [5, 7]: 1 h
- Cmax [5, 8]: 32 ng/mL
- Tmax [5, 8]: 3 h
- AUC(0-inf) [5, 8]: 283 ng·h/mL
- Cmax [5, 9]: 831 ng/mL
- Tmax [5, 9]: 0.083 h
- Vd [5, 9]: 56.2 L/kg
- AUC(0-inf) ([5]; female, athymic nude (nu/nu), mouse, plasma, noncompartmental): 1540 ng·h/mL
- clearance ([5]; female, athymic nude (nu/nu), mouse, plasma, read-out: CL of sum total doxorubicin (converted)): 64.7 mL/min/kg
- half-life ([5]; female, athymic nude (nu/nu), mouse, plasma, read-out: t1/2 of sum total doxorubicin (converted)): 10 h
- time after which sum total doxorubicin was undetectable ([5]; normal (contralateral, non-tumor) brain): 3 h
- time after which sum total doxorubicin was undetectable ([5]; peri-tumoral brain): 6 h
- time after which sum total doxorubicin was undetectable ([5]; plasma): 24 h
- Median Survival and 95% CI ([3]; 6 mg/kg IV weekly, from intracranial cell injection): 23.5 (18 – 28) days
